Experimental findings from ChEMBL document CHEMBL4004854, “Pyrrolo[3',2':6,7]cyclohepta[1,2-b]pyridines with potent photo-antiproliferative activity” (Eur J Med Chem, 2017) are described below.

Data set [1] has as its system MCF7. Nature of the data set: Phototoxicity against human MCF7 cells assessed as reduction in cell viability preincubated for 30 mins followed by 1.25 J/cm2 UV light irradiation measured after 48 hrs by MTT assay. The conditions noted are these: MCF7, light or radiation study. Format: functional, cell-based. (Formazan colour is commonly taken as a measure of viable cells.)

The nature of data set [2]: Dark toxicity against human MCF7 cells assessed as reduction in cell viability after 72 hrs by MTT assay. The format is cell-based.
The subject of data set [3] is MCF7. The data set is described as follows: Phototoxic index, ratio of CC50 for human MCF7 cells under dark condition to EC50 for human MCF7 cells under UV light irradiated condition.
Data set [4] relates to Jurkat. The data set is described as follows: Phototoxicity against human Jurkat cells assessed as reduction in cell viability preincubated for 30 mins followed by 1.25 J/cm2 UV light irradiation measured after 48 hrs by MTT assay. To be noted: light or radiation study. The format is functional, cell-based.
Data set [5] is described as follows: Dark toxicity against human Jurkat cells assessed as reduction in cell viability after 72 hrs by MTT assay. Format: cell-based.
In data set [6] the test system is K562. The data set is described as follows: Phototoxicity against human K562 cells assessed as reduction in cell viability preincubated for 30 mins followed by 1.25 J/cm2 UV light irradiation measured after 48 hrs by MTT assay. Format: functional, cell-based. The conditions noted are these: K562, light or radiation study.
Data set [7] can be described thus: Dark toxicity against human K562 cells assessed as reduction in cell viability after 72 hrs by MTT assay. The format is cell-based.
Data set [8] in a line: Singlet oxygen sensitizing activity in aqueous acetonitrile solution irradiated with nanosecond laser flash photolysis assessed as lowest triplet-excited state by measuring long lived transient life time at 10^-4 M at 450 nanometer under argon saturated condition by spectroscopic method.
Data set [9] can be described thus: Induction of singlet oxygen photogeneration in aqueous acetonitrile solution of ADPA assessed as photobleaching of anthracene absorption upon 150 Watt mercury light irradiation at 400 nanometer measured up to 2 hrs.
Data set [10] deals with MCF7. The data set is described as follows: Induction of ROS generation in human MCF7 cells at 400 nM preincubated for 30 mins followed by UV light irradiation measured after 2 hrs by H2DCFDA staining based fluorescence assay relative to control. Format: functional.
Data set [11] concerns MCF7. The data set is described as follows: Induction of mitochondrial dysfunction in human MCF7 cells assessed as organelle fusion at 400 nM upon UV light irradiation measured after 6 hrs by mitotracker orange CMTM-ROS/LCS1 dye based confocal microscopic method. The format is functional, cell-based.
In data set [12] the test system is MCF7. The data set is described as follows: Induction of lysosomal activation in human MCF7 cells at 400 nM upon UV light irradiation measured up to 6 hrs by lysotracker green DND26 dye based confocal microscopic method. Format: functional, cell-based.
The test system of data set [13] is Jurkat. Nature of the data set: Phototoxic index, ratio of CC50 for human Jurkat cells under dark condition to EC50 for human Jurkat cells under UV light irradiated condition.
The subject of data set [14] is K562. The data set is described as follows: Phototoxic index, ratio of CC50 for human K562 cells under dark condition to EC50 for human K562 cells under UV light irradiated condition.
For data set [15], the system named is Jurkat. Nature of the data set: Phototoxicity against human Jurkat cells assessed as reduction in cell viability at 0.1 uM preincubated for 30 mins followed by 2.5 J/cm2 UV light irradiation measured after 72 hrs in presence of vitamin E by MTT assay. Format: functional, cell-based.
The test system of data set [16] is Jurkat. Nature of the data set: Phototoxicity against human Jurkat cells assessed as reduction in cell viability at 0.1 uM preincubated for 30 mins followed by 2.5 J/cm2 UV light irradiation measured after 72 hrs in presence of singlet oxygen scavenger sodium azide by MTT assay. Format: functional, cell-based.
The subject of data set [17] is Jurkat. The data set is described as follows: Phototoxicity against human Jurkat cells assessed as reduction in cell viability at 0.1 uM preincubated for 30 mins followed by 2.5 J/cm2 UV light irradiation measured after 72 hrs in presence of antioxidant GSH by MTT assay. The format is functional, cell-based.
Data set [18] concerns Jurkat. The data set is described as follows: Phototoxicity against human Jurkat cells assessed as reduction in cell viability at 0.1 uM preincubated for 30 mins followed by 2.5 J/cm2 UV light irradiation measured after 72 hrs in presence of hydroxyl radical scavenger DMTU by MTT assay. Format: functional, cell-based.
A short description of data set [19]: Solubility of the compound in aqueous acetonitrile solution. The conditions noted are these: buffer. The format is physicochemical.
Data set [20] deals with Escherichia coli. The data set is described as follows: Induction of Escherichia coli pBR322 DNA single strand break assessed as open circular form DNA bands at 10 to 40 uM upon 7.5 J/cm2 UV-A light irradiation by ethidium bromide staining based UV transillumination assay.
For data set [21], the system named is MCF7. The data set is described as follows: Induction of apoptosis in human MCF7 cells assessed as caspase-3 activation at 0.5 uM upon 2.5 J/cm2 UV light irradiation measured after 24 hrs by Western blot method. Format: functional, cell-based. In general terms: Immunoblotting shows a protein as a band on a membrane.
Data set [22] concerns Escherichia coli. The data set is described as follows: Induction of Escherichia coli pBR322 DNA double strand break assessed as linear form DNA bands at 10 to 40 uM upon 7.5 J/cm2 UV-A light irradiation by ethidium bromide staining based UV transillumination assay.
For data set [23], the system named is Escherichia coli. Nature of the data set: Induction of Escherichia coli pBR322 DNA oxidative damage at 40 uM upon 7.5 J/cm2 UV-A light irradiation in presence of Fpg by ethidium bromide staining based electrophoresis.
Data set [24] relates to Escherichia coli. The data set is described as follows: Induction of Escherichia coli pBR322 DNA oxidative damage at 40 uM upon 7.5 J/cm2 UV-A light irradiation in presence of endonuclease-3 by ethidium bromide staining based electrophoresis.
Data set [25] has as its system Jurkat. The data set is described as follows: Induction of lipid peroxidation in human Jurkat cells upon 2.5 J/cm2 UV light irradiation measured after 24 hrs by TBARS assay. The format is functional, cell-based.

Active and inactive are the calls of the source. The calls are words filed in the database; no cut-off is given here.

The EC50 is the concentration needed to bring the measured effect to its halfway point. In general, CC50 refers to the concentration at which the toxic effect on the cells reaches its halfway point.

Regarding `COc1cccc(Cn2ccc3c2-c2[nH]c(=O)c(S(=O)(=O)c4ccccc4)cc2CCC3)c1`, the values for the EC50 in data set [1], in data set [4] and in data set [6] were 1.86 µM, > 20 µM and > 20 µM, respectively. Further, the half-maximal cytotoxic concentration (CC50) at 72 h in data set [2], in data set [5] and in data set [7] was > 20 µM in each case. The “Ratio CC50/EC50” value in data set [3] is >10.76. The Time in [8] is > 30 microsec. The outcome in data set [9] was inactive.

On to `CCCCCCCCCCCCCC(=O)O[C@@H]1[C@@H](C)[C@@]2(O)[C@@H](C=C(CO)C[C@]3(O)C(=O)C(C)=C[C@@H]23)[C@@H]2C(C)(C)[C@]12OC(C)=O` [PHORBOL MYRISTATE ACETATE], for which, in data set [10], the Activity came to 120%. Besides, the result in [11] and in [12] was Active.

For `CCOC(=O)c1cc2c(n1Cc1ccc(OC)cc1)-c1nc(OC)c(S(=O)(=O)c3ccccc3)cc1CCC2`, the EC50 worked out at 1.01 µM in [1], 0.25 µM in [4] and 0.95 µM in data set [6]. Also, the CC50 at 72 h in [2], in [5] and in data set [7] was > 20 µM throughout. In addition, the “Ratio CC50/EC50” value in [3] is given as >19.71; in data set [13] it was >80; in [14] it was >21.05. Moreover, the result in data set [15], in data set [20] and in data set [22] was inactive. The outcome in [16], in [17], in [18], in data set [21], in data set [23] and in data set [24] was Active. For the same molecule, in data set [19], the solubility entry is reported as “Insoluble”. Besides, in data set [25], the Activity entry is “Dose-dependent effect”.

Regarding `CCOC(=O)c1cc2c(n1C)-c1c(cc(S(=O)(=O)c3ccccc3)c(=O)n1C)CCC2`, the EC50 in data set [1] is 4.76 µM; in data set [4], 1.15 µM; in data set [6] it was 3.53 µM. For the same molecule, the CC50 at 72 h in data set [2], in data set [5] and in data set [7] was > 20 µM each time. Besides, the “Ratio CC50/EC50” value was >4.2 in [3], >17.39 in [13] and >5.67 in data set [14].

As for `O=c1[nH]c2c(cc1S(=O)(=O)c1ccccc1)CCCc1ccn(Cc3ccccc3)c1-2`, the values for the EC50 in [1], in [4] and in [6] were 2.72 µM, 3.59 µM and 8.5 µM, respectively. In addition, the 50% cytotoxic concentration (CC50) at 72 h in data set [2], in data set [5] and in data set [7] was > 20 µM throughout. Besides, the “Ratio CC50/EC50” value in data set [3] was >7.36; in data set [13], >5.57; in data set [14], >2.35.

As to `COc1ccc(Cn2ccc3c2-c2nc(OC)c(S(=O)(=O)c4ccccc4)cc2CCC3)cc1`, the EC50 in data set [1] was determined as 4.74 µM; in data set [4], 1.25 µM; in data set [6], 5.67 µM. The CC50 at 72 h in data set [2], in data set [5] and in [7] was > 20 µM throughout. The “Ratio CC50/EC50” value in [3] is >4.22; in [13], >16; in data set [14] it was >3.53.
